Data on one compound can be found in patent US10676509B2, “Surface-immobilized antimicrobial peptoids” (Northwestern University, priority 2008, dated 2020).

One test deals with P. aeruginosa. The test is classed as cell-based, Pseudomonas aeruginosa (ATCC 700829). The conditions noted are these: 16 h. Here is the method: (§1) The polymers were initially tested to determine their antibacterial properties in the solution state. Antibacterial activities of the compounds were tested using the methods described above for both Gram-negative and Gram-positive bacterial strains.
(§2) The minimum inhibitory concentration (MIC) for each polymer was determined according to Clinical Laboratory Standards Institute (CLSI) broth microdilution protocols (M7-A6). The procedure explained previously was followed (Chongsiriwatana et al., supra); briefly, serial dilutions of the polymers were prepared in Mueller-Hinton broth (MHB) in 96-well microtiter plates and bacterial inoculum in MHB was added to each well (˜5.0×10^4 CFU/well). Optical density was monitored at 590 nm for 16 h at 35° C.

The target in test [1] is T1, fibrinogen from human plasma (Homo sapiens, UniProt P02671+P02675+P02679).
T1 construct: fibrinogen from human plasma was dissolved at 3 mg/ml concentrations in buffer B; purchased Aldrich (Milwaukee, Wis.); host or cells: human plasma
T1 sequence (P02671 20-644 isoform P02671-2 limits assumed): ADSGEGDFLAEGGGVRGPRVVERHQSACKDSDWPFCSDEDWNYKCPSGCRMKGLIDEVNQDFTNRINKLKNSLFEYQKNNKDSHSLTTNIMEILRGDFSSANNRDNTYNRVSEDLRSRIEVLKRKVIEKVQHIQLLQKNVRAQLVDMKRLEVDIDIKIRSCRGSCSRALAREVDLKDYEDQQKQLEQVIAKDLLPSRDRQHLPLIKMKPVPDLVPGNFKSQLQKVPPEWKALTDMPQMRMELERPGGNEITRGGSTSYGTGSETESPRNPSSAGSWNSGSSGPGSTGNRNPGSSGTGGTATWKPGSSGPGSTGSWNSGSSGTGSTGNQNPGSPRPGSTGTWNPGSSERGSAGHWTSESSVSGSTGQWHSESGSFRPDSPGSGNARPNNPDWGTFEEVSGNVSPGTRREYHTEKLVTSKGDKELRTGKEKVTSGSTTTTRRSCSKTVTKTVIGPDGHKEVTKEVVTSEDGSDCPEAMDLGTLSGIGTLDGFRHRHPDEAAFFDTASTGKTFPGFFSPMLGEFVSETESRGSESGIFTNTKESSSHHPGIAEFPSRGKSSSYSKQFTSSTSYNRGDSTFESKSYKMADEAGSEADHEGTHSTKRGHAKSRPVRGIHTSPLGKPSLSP
T1 sequence (P02675 31-491): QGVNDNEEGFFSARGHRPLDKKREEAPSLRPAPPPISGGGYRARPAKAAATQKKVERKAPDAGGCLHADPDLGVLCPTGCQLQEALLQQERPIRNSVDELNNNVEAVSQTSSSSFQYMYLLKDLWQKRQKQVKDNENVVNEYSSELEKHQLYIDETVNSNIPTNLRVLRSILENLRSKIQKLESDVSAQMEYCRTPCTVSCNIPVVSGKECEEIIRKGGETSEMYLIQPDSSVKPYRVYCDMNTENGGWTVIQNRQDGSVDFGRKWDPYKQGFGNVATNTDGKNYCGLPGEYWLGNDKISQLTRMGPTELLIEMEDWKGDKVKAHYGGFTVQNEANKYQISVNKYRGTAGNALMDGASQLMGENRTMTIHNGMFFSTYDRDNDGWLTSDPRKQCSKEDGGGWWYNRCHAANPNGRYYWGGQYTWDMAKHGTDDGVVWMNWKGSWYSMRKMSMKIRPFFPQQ
T1 sequence (P02679 27-437 isoform P02679-2 limits assumed): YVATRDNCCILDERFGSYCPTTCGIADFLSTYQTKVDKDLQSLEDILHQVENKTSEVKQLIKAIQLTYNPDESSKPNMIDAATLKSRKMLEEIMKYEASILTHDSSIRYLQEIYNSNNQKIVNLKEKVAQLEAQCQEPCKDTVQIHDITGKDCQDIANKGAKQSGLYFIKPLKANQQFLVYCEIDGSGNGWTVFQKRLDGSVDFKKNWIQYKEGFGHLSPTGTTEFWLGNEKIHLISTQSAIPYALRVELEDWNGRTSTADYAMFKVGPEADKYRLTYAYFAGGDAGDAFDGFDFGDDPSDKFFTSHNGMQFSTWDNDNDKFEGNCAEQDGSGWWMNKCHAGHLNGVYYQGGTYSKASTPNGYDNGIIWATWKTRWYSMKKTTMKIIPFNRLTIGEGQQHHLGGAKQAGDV
The test can be described thus: Short-term fibrinogen adsorption on modified TiO2 sensors using OWLS. To be noted: Table 7, fibrinogen 3 mg/ml, 20 min, 37° C., mean ± SD. Here is the method: Lyophilized human serum was reconstituted in water to reach the typical concentration in blood; fibrinogen from human plasma was dissolved at 3 mg/ml concentrations in buffer B (10 mM HEPES, 150 mM NaCl, pH=7.4). For in situ protein-adsorption experiments, TiO2 coated waveguide sensors were modified with peptidomimetic polymers as explained previously. After equilibration of the OWLS baseline in buffer B, protein solution was injected and allowed to adsorb for 20 min at 37° C. before rinsing with buffer B. A refractive index value of 1.331 27 was used for buffer B, and a standard value of 0.182 cm^3/g was used for dn/dc in the protein-adsorption calculations.

A further test relates to B. subtilis. The test is classed as cell-based, Bacillus subtilis (ATCC 6633). To be noted: 16 h. Here is the method:
as §1, §2

A further test relates to S. epidermidis. The test is classed as cell-based, Staphylococcus epidermidis RP62A (ATCC 12228). The conditions noted are these: 16 h. As to the method: as §1, §2
The next test deals with E. coli. The test is classed as cell-based, Escherichia coli (ATCC 35218). The conditions noted are these: 16 h. Here is the method:
as §1, §2

The structures appear in SMILES notation. Non-standard residues stand in square brackets, D forms with d. Residues, ends and D or L forms follow the SMILES beside them. Dopa = N[C@@H](Cc1ccc(O)c(O)c1)C(=O)O; Nme = COCCNCC(=O)O

In the case of `COCCN(CC(=O)N(CCOC)CC(=O)N(CCOC)CC(=O)N(CCOC)CC(=O)N(CCOC)CC(=O)N(CCOC)CC(=O)N(CCOC)CC(=O)N(CCOC)CC(=O)N(CCOC)CC(=O)N(CCOC)CC(=O)N(CCOC)CC(=O)N(CCOC)CC(=O)N(CCOC)CC(=O)N(CCOC)CC(=O)N(CCOC)CC(=O)N(CCOC)CC(=O)N(CCOC)CC(=O)N(CCOC)CC(=O)N(CCOC)CC(=O)N(CCOC)CC(=O)N[C@@H](Cc1ccc(O)c(O)c1)C(=O)N[C@@H](CCCCN)C(=O)N[C@@H](Cc1ccc(O)c(O)c1)C(=O)N[C@@H](CCCCN)C(=O)N[C@@H](Cc1ccc(O)c(O)c1)C(N)=O)C(C)=O` [PMP1, (Nme)20-(DOPA-Lys)2-DOPA] (Ac-[Nme][Nme][Nme][Nme][Nme][Nme][Nme][Nme][Nme][Nme][Nme][Nme][Nme][Nme][Nme][Nme][Nme][Nme][Nme][Nme][Dopa]K[Dopa]K[Dopa]-NH2; N-terminus and C-terminus assumed), in the test with P. aeruginosa, the “MIC P. aeruginosa” value is more than 100 µM. The “Adsorbed mass Fibrinogen” value in test [1] is 7 ± 3 ng/cm^2. For the same compound, the “MIC B. subtilis” value in the test with B. subtilis is more than 100 µM. In addition, in the test on S. epidermidis, the “MIC S. epidermidis” value was more than 100 µM. Also, the “MIC E. coli” value in the test on E. coli was more than 100 µM.
